In patent publication US10954253B2, “1,2-dihydro-3H-pyrazolo[3,4-d]pyrimidin-3-one derivative as Wee1 inhibitor” (SHIJIAZHUANG SAGACITY NEW DRUG DEVELOPMENT CO., LTD., priority 2017, dated 2021):
≈ marks a conversion by molar mass, not a printed value. Where two headings read alike, the source gives them in different places. One block for each compound: values may come before it.

How the values were obtained:
[1] = Thermodynamic solubility determination; assay type: physicochemical; details: for solubility at 24 h: buffer, 22 °C, aqueous buffer, thermodynamic from solid
Procedure: No less than 2 mg sample powder was weighted in a Whatman miniuniprep vial. If the experiment required to test the thermodynamic solubility of the sample in multiple buffer solutions, then separate vial was required for each test.
[…] After addition of the buffer, the Whatman filter cap of the miniuniprep is mounted and pressed until it was above the liquid level to allow the filter to contact with the buffer solution during shaking. The solubility sample was vortexed for 2 minutes. And the solution phenomenon was recorded. Then the vial was shaked at room temperature (about 22 to 25° C.) for 24 hours at a speed of 550 rpm. And the Whatman Miniunipreps filter cap was pressed to bottom to obtain the filtrate of the solubility solution of the sample. All sample vials should conduct filtration for the insoluble matter before and after and osmotic phenomenon. The […] was diluted 50 times to obtain a sample dilution.
Three UV standard solutions were injected from low to high concentrations into HPLC, and then dilution and supernatant of the test compounds were injected. The sample was injected and tested twice. Integration was conducted to the UV peaks. The standard curve was established and the thermodynamic solubility of the sample was calculated.

[2] = Tissue distribution (PK) in BALB/c nude mice bearing human colon cancer LoVo xenografts; assay type: in vivo; details: mouse, LoVo xenograft mice, oral 40 mg/kg twice a day for three weeks, after last administration
Procedure: (1) In vivo PD study of the compound used on tumors of human colon cancer LoVo cells subcutaneously xenografted to BALB/c nude mice model
Experimental method: the experimental animals used were BALB/c nude mice (provided by Shanghai Xipuer-Beikai Experimental animal CO., Ltd), 6-8 weeks old, weighting 18-22 g.
Human colon cancer LoVo cells, monolayer-cultured in vitro, culturing condition was Ham's F-12 medium supplemented with 10% fetal bovine serum, 100 U/mL penicillin, 100 μg/mL streptomycin and 2 mM glutamine, 37° C., 5% CO2. Conventional digestion treatment passage was done with trypsin-EDTA twice a week. When the cell saturation reached 80%-90%, the cells were collected, counted, and inoculated. 0.1 mL (10×106) of LoVo cells were subcutaneously inoculated into the right back of each nude mouse, and group administration was started when the average tumor volume reached 213 mm^3. The administration mode was oral administration, 40 mg/kg twice a day for three consecutive weeks.
After the last administration of the experiment, a portion of plasma, tumor, intestine, brain, lung, liver and pancreas was collected from the number 1-2 animals after 0.5 h of administration, and quick-froze for PK detection; a portion of plasma, tumor, intestine, brain, lung, liver and pancreas was collected from the number 3-4 animals after 2 h of administration, and quick-froze for PK detection; a portion of plasma, tumor, intestine, brain, lung, liver and pancreas was collected from the number 5-6 animals after 8 h of administration, and quick-froze for PK detection. The tumor, intestine, brain, lung, liver and pancreas were weighted separately and added 9 times volumes of homogenate MeOH/15 mM PBS (1:2, v:v) for homogenization. 20 μL sample was added into 300 μL of the stop buffer including internal standard for protein precipitation, and shaked to mix well. The mixture was centrifuged at 13,000 rpm for 10 minutes at 20-25° C., and 3 μL of the supernatant was taken for LCMS analysis.

[3] = Pharmacokinetic evaluation in BALB/c mice after intravenous and oral administration; assay type: in vivo; details: mouse, plasma, BALB/c mice (female), single intravenous injection and oral administration; for clearance: read-out: Clearance rate; for AUC: read-out: Concentration integral AUC; for half-life: read-out: Half-life T1/2 (converted); for bioavailability: read-out: bioavailability F
Procedure: Experimental objective: pharmacokinetics evaluation of the compound in BALB/c nude mice.
The rodent pharmacological characteristics of the compound after intravenous administration and oral administration were tested by a standard protocol, the candidate compound in the experiment was formulated into a clear solution, and the mice were administered by a single intravenous injection and oral administration. The intravenous and oral vehicles are a certain proportion of aqueous hydroxypropyl 3-cyclodextrin or physiological saline solution.

Wee1 = Wee1 (Homo sapiens (Human), UniProt P30291); assay: In vitro enzymatic inhibitory activity (33P-ATP filter-binding kinase assay, MBP substrate); assay type: biochemical; details: Wee-1 150 nM, MBP 20 μM
In short: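 Wee1 at 150 nM with 20 μM MBP substrate in pH 7.5 HEPES buffer (10 mM MgCl2, 2 mM DTT, 1% DMSO) was preincubated 20 min at RT with compounds in a 10-point 3-fold dilution series. The reaction was started with ^33P-ATP and run 2 h at RT. Kinase activity was measured by filter binding.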

[4] = pH 6.5, shaken 24 hours at room temperature, read-out: Solubility (μM) pH 6.5
[5] = pH 7.4, shaken 24 hours at room temperature, read-out: Solubility (μM) pH 7.4

Chain of Wee1 (P30291 whole entry): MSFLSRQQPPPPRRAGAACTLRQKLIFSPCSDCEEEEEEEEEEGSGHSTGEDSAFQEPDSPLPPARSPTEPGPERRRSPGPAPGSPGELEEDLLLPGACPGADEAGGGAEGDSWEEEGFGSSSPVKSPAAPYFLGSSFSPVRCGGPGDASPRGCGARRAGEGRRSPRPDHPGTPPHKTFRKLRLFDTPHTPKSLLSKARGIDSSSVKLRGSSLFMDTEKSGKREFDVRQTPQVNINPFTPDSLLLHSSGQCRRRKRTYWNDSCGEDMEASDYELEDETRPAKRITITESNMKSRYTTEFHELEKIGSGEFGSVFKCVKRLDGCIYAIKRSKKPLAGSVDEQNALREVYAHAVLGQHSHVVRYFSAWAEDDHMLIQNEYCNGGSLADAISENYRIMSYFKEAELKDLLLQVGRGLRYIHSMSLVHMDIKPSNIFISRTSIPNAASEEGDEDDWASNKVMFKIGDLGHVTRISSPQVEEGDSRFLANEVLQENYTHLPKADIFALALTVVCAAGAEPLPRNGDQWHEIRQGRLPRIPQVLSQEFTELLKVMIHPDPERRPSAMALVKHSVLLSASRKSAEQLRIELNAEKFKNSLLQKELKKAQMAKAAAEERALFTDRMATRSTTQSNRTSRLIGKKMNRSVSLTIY

- solubility at 24 h [1, 4]: 434 µM (≈ 217 µg/mL)
- solubility at 24 h [1, 5]: 68.8 µM (≈ 34.4 µg/mL)
- AUC(0-t) ([2]; Colon): 225 µM·h
- Cmax ([2]; Colon): 238 µM
- Tmax ([2]; Colon): 0.5 h
- AUC(0-t) ([2]; liver): 117 µM·h
- Cmax ([2]; liver): 38.1 µM
- Tmax ([2]; liver): 0.5 h
- AUC(0-t) ([2]; lung): 36.5 µM·h
- Cmax ([2]; lung): 17.2 µM
- Tmax ([2]; lung): 0.5 h
- AUC(0-t) ([2]; pancreas): 55.5 µM·h
- Cmax ([2]; pancreas): 35.6 µM
- Tmax ([2]; pancreas): 0.5 h
- AUC(0-t) ([2]; plasma): 6.97 µM·h
- Cmax ([2]; plasma): 3.07 µM
- Tmax ([2]; plasma): 0.5 h
- AUC(0-t) ([2]; tumer (tumor)): 15.3 µM·h
- Cmax ([2]; tumer (tumor)): 3.85 µM
- Tmax ([2]; tumer (tumor)): 2 h
- clearance [3]: 85.7 mL/min/kg
- AUC [3]: 1.2 µM·h
- half-life [3]: 0.25 h
- bioavailability [3]: 31%
Structure (SMILES): C=CCn1c(=O)c2cnc(Nc3ccc(N4CCN(C)CC4)cc3)nc2n1-c1cccc(C(C)(C)O)n1 [AZD1775, reference compound]

- IC50 (Wee1): 31.5 nM
- clearance [3]: 57.1 mL/min/kg
- AUC [3]: 1.73 µM·h
- half-life [3]: 1.7 h
- bioavailability [3]: 35.3%
Structure (SMILES): C=CCn1c(=O)c2cnc(Nc3ccc(N4CCC5(CCN(C)CC5)CC4)cc3)nc2n1-c1cccc(C(=O)N(C)C)n1 [Embodiment 15, 6-(2-allyl-6-((4-(9-methyl-3,9-diazaspiro[5.5]undecan-3-yl)phenyl)amino)-3-oxo-2,3-dihydro-1H-pyrazolo[3,4-d]pyrimidin-1-yl)-N,N-dimethylpicolinamide]

- IC50 (Wee1): 58.8 nM
- AUC(0-t) ([2]; Brain): 2.12 µM·h
- Cmax ([2]; Brain): 0.959 µM
- Tmax ([2]; Brain): 0.5 h
- AUC(0-t) ([2]; Colon): 402 µM·h
- Cmax ([2]; Colon): 135 µM
- Tmax ([2]; Colon): 0.5 h
- AUC(0-t) ([2]; liver): 257 µM·h
- Cmax ([2]; liver): 67.7 µM
- Tmax ([2]; liver): 2 h
- AUC(0-t) ([2]; lung): 74.7 µM·h
- Cmax ([2]; lung): 14.6 µM
- Tmax ([2]; lung): 2 h
- AUC(0-t) ([2]; pancreas): 253 µM·h
- Cmax ([2]; pancreas): 49.3 µM
- Tmax ([2]; pancreas): 2 h
- AUC(0-t) ([2]; plasma): 14.2 µM·h
- Cmax ([2]; plasma): 4.27 µM
- Tmax ([2]; plasma): 2 h
- AUC(0-t) ([2]; tumer (tumor)): 37.3 µM·h
- Cmax ([2]; tumer (tumor)): 5.42 µM
- Tmax ([2]; tumer (tumor)): 8 h
Structure (SMILES): C=CCn1c(=O)c2cnc(Nc3ccc(N4CCC5(CCN(C(C)=O)CC5)CC4)cc3)nc2n1-c1cccc(C(C)(C)O)n1 [Embodiment 30, 6-((4-(9-acetyl-3,9-diazaspiro[5.5]undecan-3-yl)phenyl)amino)-2-allyl-1-(6-(2-hydroxypropan-2-yl)pyridin-2-yl)-1H-pyrazolo[3,4-d]pyrimidin-3(2H)-one]

- IC50 (Wee1): 12.1 nM
- clearance [3]: 23 mL/min/kg
- AUC [3]: 5.59 µM·h
- half-life [3]: 1.81 h
- bioavailability [3]: 45.1%
Structure (SMILES): C=CCn1c(=O)c2cnc(Nc3ccc(N4CCC5(CCN(C)CC5)CC4)cc3)nc2n1-c1cccc(C2(F)COC2)n1 [Embodiment 43, 2-allyl-1-(6-(3-fluorooxetan-3-yl)pyridin-2-yl)-6-((4-(9-methyl-3,9-diazaspiro[5.5]undecan-3-yl)phenyl)amino)-1H-pyrazolo[3,4-d]pyrimidin-3(2H)-one]

- solubility at 24 h [1, 4]: 1470 µM (≈ 835 µg/mL)
- solubility at 24 h [1, 5]: 1050 µM (≈ 595 µg/mL)
- solubility in water ([1]; in words, compared to AZD1775, pH=6.5 and pH=7.4): excellent solubility in water
- IC50 (Wee1): 13.4 nM
- clearance [3]: 51 mL/min/kg
- AUC [3]: 2.15 µM·h
- half-life [3]: 1.49 h
- bioavailability [3]: 32.4%
Structure (SMILES): C=CCn1c(=O)c2cnc(Nc3ccc(N4CCC5(CCN(C)CC5)CC4)cc3)nc2n1-c1cccc(C(C)(C)O)n1 [Embodiment 29, 2-allyl-1-(6-(2-hydroxypropan-2-yl)pyridin-2-yl)-6-((4-(9-methyl-3,9-diazaspiro[5.5]undecan-3-yl)phenyl)amino)-1H-pyrazolo[3,4-d]pyrimidin-3(2H)-one]

- IC50 (Wee1): 79.6 nM
Structure (SMILES): CN1CCC2(CC1)CCN(c1ccc(Nc3ncc4c(=O)n(Cc5ccccc5)n(-c5ccccc5)c4n3)cc1)CC2 [Embodiment 23, 2-benzyl-6-((4-(9-methyl-3,9-diazaspiro[5.5]undecane-3-yl)phenyl)amino)-1-phenyl-1H-pyrazolo[3,4-d](2H)-one]

- IC50 (Wee1): 25.3 nM
Structure (SMILES): C=CCn1c(=O)c2cnc(Nc3ccc(N4CCC5(CCN(C)CC5)CC4)cc3)nc2n1-c1ccc(Cl)cc1 [Embodiment 12, 2-allyl-1-(4-chlorophenyl)-6-((4-(9-methyl-3,9-diazaspiro[5.5]undecan-3-yl)phenyl)amino)-1H-pyrazolo[3,4-d]pyrimidin-3(2H)-one]

- IC50 (Wee1): 90 nM
Structure (SMILES): C=CCn1c(=O)c2cnc(Nc3ccc(N4CCC5(CCN(C)CC5)CC4)cc3)nc2n1-c1cccc(O[C@H]2CCOC2)n1 [Embodiment 55, (S)-2-allyl-6-((4(9-methyl-3,9-diazaspiro[5.5]undecan-3-yl)phenyl)amino)-1-(6-((tetrahydrofuran-3-yl)oxy)pyridin-2-yl)-1H-pyrazolo[3,4-d]pyrimidin-3(2H)-one]

- IC50 (Wee1): 2.5 nM
Structure (SMILES): C=CCn1c(=O)c2cnc(Nc3ccc(N4CCC5(CCN(C)CC5)CC4)cc3)nc2n1-c1cccc(OC2CC2)n1 [Embodiment 50, 2-allyl-1-(6-cyclopropoxypyridin-2-yl)-6-((4-(9-methyl-3,9-diazaspiro[5.5]undecan-3-yl)phenyl)amino)-1H-pyrazolo[3,4-d]pyrimidin-3(2H)-one]

- IC50 (Wee1): 13 nM
Structure (SMILES): C=CCn1c(=O)c2cnc(Nc3ccc(N4CCC5(CCNCC5)CC4)cc3)nc2n1-c1cccc(C(C)(C)O)n1 [Compound 76, 6-((4-(-3,9-diazaspiro[5.5]undecan-3-yl)phenyl)amino)-2-allyl-1-(6-(2-hydroxypropan-2-yl)pyridin-2-yl)-1H-pyrazolo[3,4-d]pyrimidin-3(2H)-one]

- IC50 (Wee1): 2.8 nM
Structure (SMILES): C=CCn1c(=O)c2cnc(Nc3ccc(N4CCC5(CCN(C)CC5)CC4)cc3)nc2n1-c1cccc(OCC)n1 [Embodiment 51, 2-allyl-1-(6-ethoxypyridin-2-yl)-6-((4-(9-methyl-3,9-diazaspiro[5.5]undecan-3-yl)phenyl)amino)-1H-pyrazolo[3,4-d]pyrimidin-3(2H)-one]
